Ki, EC50 and IC50 data for 29 molecules are collected here from the Kinase Knowledgebase extract (Sharma et al. 2016).

Broadly, the Ki is a dissociation constant, usually derived from enzyme kinetics or from competition with a known ligand. Low values mean a stronger hold on the target, high ones a looser hold on the target. The EC50 is the midpoint of the concentration-response curve. High values mean lower potency in that assay, low ones higher potency in that assay. In general, IC50 refers to the midpoint of a concentration-inhibition curve. A lower IC50 goes with inhibition by little substance.

The target of assay [1] is PIK3CG (human) (UniProt P48736). In words: Assessment of PIK3CG Kinase Binding Activity.
Sequence of PIK3CG (human) (P48736 whole entry, looked up): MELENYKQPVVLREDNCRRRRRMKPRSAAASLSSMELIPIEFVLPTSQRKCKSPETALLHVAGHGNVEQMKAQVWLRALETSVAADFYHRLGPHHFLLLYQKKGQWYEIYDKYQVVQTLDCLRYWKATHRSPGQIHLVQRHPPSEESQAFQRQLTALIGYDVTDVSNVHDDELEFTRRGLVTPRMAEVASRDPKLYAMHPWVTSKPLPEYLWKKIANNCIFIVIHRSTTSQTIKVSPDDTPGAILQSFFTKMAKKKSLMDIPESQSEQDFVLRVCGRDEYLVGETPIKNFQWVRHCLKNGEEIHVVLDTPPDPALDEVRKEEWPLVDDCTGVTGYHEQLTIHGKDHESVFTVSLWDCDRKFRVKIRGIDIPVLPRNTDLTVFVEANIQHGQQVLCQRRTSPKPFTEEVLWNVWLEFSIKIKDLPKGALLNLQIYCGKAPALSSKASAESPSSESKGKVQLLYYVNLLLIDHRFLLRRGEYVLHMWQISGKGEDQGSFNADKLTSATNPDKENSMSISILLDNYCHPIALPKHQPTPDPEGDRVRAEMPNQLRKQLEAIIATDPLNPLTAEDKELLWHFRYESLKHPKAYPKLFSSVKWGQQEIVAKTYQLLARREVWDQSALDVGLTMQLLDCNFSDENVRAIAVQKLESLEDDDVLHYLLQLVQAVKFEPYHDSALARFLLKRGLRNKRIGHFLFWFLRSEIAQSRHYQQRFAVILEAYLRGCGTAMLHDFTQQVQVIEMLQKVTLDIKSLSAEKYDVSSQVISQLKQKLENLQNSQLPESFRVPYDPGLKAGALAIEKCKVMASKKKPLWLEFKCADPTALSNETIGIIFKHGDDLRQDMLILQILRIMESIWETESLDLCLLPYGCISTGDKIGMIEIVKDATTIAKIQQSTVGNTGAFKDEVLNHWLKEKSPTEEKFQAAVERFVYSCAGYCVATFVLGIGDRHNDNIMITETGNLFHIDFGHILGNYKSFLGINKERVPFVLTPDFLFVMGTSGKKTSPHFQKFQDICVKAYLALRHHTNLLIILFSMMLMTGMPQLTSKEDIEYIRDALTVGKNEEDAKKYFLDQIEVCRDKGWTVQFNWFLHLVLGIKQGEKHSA
The target of assay [2] is PIK3CA (human) (UniProt P42336). In words: Assessment of PIK3CA Kinase Binding Activity.
Sequence of PIK3CA (human) (P42336 whole entry, looked up): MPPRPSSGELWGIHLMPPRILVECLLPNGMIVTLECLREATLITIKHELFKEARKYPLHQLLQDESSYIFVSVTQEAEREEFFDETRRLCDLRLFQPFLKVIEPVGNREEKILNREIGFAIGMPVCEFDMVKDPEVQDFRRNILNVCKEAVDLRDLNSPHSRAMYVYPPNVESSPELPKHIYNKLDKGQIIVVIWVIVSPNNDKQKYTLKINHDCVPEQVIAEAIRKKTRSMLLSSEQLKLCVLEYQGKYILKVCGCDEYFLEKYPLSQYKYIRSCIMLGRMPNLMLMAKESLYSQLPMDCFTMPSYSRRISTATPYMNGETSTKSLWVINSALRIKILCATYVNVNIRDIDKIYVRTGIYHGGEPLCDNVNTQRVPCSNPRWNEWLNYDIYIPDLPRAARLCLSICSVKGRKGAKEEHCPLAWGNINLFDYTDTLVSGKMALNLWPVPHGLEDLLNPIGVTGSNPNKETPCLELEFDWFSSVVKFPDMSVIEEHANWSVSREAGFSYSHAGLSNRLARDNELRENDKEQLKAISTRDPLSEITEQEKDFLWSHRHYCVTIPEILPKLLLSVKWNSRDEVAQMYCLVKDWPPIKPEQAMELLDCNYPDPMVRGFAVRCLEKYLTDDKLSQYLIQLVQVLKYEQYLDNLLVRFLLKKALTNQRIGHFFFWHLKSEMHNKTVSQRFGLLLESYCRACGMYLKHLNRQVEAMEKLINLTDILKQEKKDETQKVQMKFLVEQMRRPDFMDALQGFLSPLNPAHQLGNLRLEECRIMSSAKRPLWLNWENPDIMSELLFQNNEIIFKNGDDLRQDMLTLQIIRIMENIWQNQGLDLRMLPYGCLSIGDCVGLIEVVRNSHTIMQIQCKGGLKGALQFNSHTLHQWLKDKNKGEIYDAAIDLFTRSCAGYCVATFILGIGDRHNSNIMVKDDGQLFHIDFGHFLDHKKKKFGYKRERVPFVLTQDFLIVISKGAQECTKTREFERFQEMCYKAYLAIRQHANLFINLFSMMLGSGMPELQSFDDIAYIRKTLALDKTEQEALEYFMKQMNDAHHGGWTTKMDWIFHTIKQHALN
The target in assay [3] is PIK3CB (Human) (UniProt P42338). In words: Assessment of PIK3CB Kinase Binding Activity.
Sequence of PIK3CB (Human) (P42338 whole entry, looked up): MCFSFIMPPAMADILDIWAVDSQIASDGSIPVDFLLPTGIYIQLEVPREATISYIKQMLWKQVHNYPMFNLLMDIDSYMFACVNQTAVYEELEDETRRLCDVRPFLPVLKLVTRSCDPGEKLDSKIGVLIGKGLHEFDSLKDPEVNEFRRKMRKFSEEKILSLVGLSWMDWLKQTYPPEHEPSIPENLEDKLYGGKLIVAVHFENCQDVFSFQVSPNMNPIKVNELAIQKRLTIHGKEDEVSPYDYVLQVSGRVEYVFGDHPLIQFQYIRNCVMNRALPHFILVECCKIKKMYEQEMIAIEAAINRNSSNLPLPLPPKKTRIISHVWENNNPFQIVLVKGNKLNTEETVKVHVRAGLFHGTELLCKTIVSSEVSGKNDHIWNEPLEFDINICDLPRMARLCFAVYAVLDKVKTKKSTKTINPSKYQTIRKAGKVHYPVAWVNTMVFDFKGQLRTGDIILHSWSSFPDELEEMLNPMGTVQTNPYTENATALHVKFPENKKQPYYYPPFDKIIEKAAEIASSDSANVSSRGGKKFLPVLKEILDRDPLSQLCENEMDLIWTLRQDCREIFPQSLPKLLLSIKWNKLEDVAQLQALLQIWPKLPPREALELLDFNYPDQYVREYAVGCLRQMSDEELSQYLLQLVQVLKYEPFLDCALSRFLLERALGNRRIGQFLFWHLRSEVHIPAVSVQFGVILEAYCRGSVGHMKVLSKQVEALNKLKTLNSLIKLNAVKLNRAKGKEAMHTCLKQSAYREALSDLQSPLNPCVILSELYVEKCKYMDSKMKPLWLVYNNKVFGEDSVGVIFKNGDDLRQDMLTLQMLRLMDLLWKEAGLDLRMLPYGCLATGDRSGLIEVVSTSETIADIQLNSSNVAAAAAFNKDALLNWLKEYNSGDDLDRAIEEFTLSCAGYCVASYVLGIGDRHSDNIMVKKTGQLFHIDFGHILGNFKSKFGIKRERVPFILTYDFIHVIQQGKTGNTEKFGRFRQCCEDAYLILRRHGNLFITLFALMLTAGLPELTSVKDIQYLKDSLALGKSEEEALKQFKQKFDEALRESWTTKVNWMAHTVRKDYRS
Assay [4] deals with PIK3CD (Human) (UniProt O00329). In words: Assessment of PIK3CD Kinase Binding Activity.
Sequence of PIK3CD (Human) (O00329 whole entry, looked up): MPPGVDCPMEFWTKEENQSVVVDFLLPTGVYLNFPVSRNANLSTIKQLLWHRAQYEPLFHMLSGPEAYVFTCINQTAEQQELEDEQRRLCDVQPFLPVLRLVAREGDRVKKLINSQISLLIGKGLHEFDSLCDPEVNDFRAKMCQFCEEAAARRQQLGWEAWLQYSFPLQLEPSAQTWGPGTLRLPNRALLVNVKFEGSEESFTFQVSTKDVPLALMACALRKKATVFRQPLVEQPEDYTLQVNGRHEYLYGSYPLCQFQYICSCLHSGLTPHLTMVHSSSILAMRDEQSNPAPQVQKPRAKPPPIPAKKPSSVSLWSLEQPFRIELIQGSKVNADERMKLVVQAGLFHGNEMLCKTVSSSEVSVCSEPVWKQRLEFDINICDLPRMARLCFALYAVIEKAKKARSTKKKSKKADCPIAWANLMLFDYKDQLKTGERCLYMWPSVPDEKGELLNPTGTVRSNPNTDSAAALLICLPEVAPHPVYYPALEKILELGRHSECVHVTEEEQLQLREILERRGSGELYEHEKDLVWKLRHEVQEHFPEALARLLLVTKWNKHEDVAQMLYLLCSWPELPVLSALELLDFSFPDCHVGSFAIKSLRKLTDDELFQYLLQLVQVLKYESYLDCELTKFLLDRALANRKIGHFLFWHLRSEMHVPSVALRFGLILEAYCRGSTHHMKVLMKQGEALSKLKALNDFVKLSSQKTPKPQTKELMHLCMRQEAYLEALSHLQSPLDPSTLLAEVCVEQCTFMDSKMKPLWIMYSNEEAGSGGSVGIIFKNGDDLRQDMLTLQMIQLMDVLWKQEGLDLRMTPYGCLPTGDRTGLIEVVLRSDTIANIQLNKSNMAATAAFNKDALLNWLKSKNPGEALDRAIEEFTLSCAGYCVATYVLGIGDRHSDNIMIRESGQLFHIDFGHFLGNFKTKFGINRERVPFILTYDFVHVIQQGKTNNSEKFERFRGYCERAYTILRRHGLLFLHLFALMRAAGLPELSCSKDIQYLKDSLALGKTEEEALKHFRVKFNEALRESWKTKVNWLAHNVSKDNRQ
For assay [5], the target named is PIK3CA (human) (UniProt P42336). Kind of assay: Inhibition of A2780 Cell Proliferation.
Assay [6] shares this target. Kind of assay: Inhibition of PIK3CA Kinase Activity.

In the case of `CC(C)n1nnc(CCNC(=O)Nc2cn3cc(-c4cnc(N)c(C(F)(F)F)c4)ccc3n2)n1`, the Ki in assay [1], in assay [2], in assay [3] and in assay [4] was less than 1 µM in each case.

In the case of `CCc1cnc(CCNC(=O)Nc2cn3cc(-c4cnc(N)c(C(F)(F)F)c4)ccc3n2)o1`, the Ki in assay [1], in assay [2], in assay [3] and in assay [4] was less than 1 µM each time.

For `Nc1ncc(-c2ccc3nc(NC(=O)NCCn4nnc(C5CC5)n4)cn3c2)cc1C(F)(F)F`, the Ki in assay [1], in assay [2], in assay [3] and in assay [4] was less than 1 µM in each case.

For the molecule `CC(C)n1nnc(CCNC(=O)Nc2cn3cc(-c4ccc(N)nc4)ccc3n2)n1`, the Ki in assay [1] was less than 1 µM; in assay [2], less than 10 µM; in assay [3] it was less than 1 µM; in assay [4], less than 1 µM.

Regarding `CCc1nnn(CCNC(=O)Nc2cn3cc(-c4cnc(N)c(C(F)(F)F)c4)ccc3n2)n1`, the Ki in assay [1], in assay [2], in assay [3] and in assay [4] was less than 1 µM each time.

`CCn1nnc(CCNC(=O)Nc2cn3cc(-c4cnc(N)c(C(F)(F)F)c4)ccc3n2)n1`: the Ki in assay [1], in assay [2], in assay [3] and in assay [4] was less than 1 µM in each case.

In assay [5], `CCN1CCC(OCC(=O)Nc2cn3cc(-c4cnc(N)c(C(F)(F)F)c4)ccc3n2)CC1` displayed an EC50 of less than 10 µM. The molecule further had an IC50 in assay [6] of less than 1 µM.

In assay [5], `CC(=O)Nc1cn2nc(-c3cnc(N)c(-c4ccccc4)c3)ccc2n1` yielded an EC50 of less than 1 µM. Moreover, the IC50 in assay [6] is less than 1 µM.

The molecule `Nc1ccc(C(=O)Nc2nc3ccc(-c4cnc(N)c(C(F)(F)F)c4)cc3s2)cn1` registered an EC50 in assay [5] of less than 1 µM. In assay [6], this molecule came in with an IC50 of less than 1 µM.

Molecule `COCC(=O)Nc1cn2cc(-c3cnc(N)c(OCC(F)(F)F)n3)ccc2n1` returned an EC50 in assay [5] of less than 1 µM. For the same molecule, in assay [6], the IC50 is less than 1 µM.

In turn, `Nc1ncc(-c2ccc3nc(NC(=O)[C@H]4CCCN4)cn3n2)cc1C(F)(F)F` returned an EC50 in assay [5] of less than 25 µM. In addition, the IC50 in assay [6] is less than 1 µM.

As for `CC(=O)Nc1cn2c(C)c(-c3cnc(N)c(C(F)(F)F)c3)ccc2n1`, the EC50 in assay [5] was less than 10 µM. This molecule also registered an IC50 in assay [6] of less than 1 µM.

On to `CC(=O)Nc1cccc(-c2c(NC(C)=O)nc3ccc(-c4cnc(N)c(C(F)(F)F)c4)cn23)c1`, for which, in assay [5], the EC50 is less than 25 µM. Moreover, the IC50 in assay [6] is less than 1 µM.

`CC(=O)Nc1cn2cc(-c3cnc(N)c(C(F)(F)F)c3)cc(F)c2n1` displayed an EC50 in assay [5] of less than 10 µM. Besides, in assay [6], the IC50 is less than 1 µM.

`CC(=O)Nc1cn2cc(-c3cnc(N)c(Oc4cccnc4)n3)ccc2n1` showed an EC50 in assay [5] of less than 1 µM. Moreover, the IC50 in assay [6] is less than 1 µM.

With `CCN1CC[C@@H](OCC(=O)Nc2cn3cc(-c4cnc(N)c(C(F)(F)F)c4)ccc3n2)C1`, in assay [5], the EC50 is less than 10 µM. In addition, the IC50 in assay [6] was less than 1 µM.

Molecule `CCN(CC)C(=O)c1cc(-c2ccc3nc(NC(C)=O)cn3c2)cnc1N` showed an EC50 in assay [5] of less than 10 µM. This molecule also came in with an IC50 in assay [6] of less than 1 µM.

`Cc1ccc(C2CCCN2C(=O)Nc2cn3cc(-c4cnc(N)c(C(F)(F)F)c4)ccc3n2)s1` (stereo not given): in assay [5], the EC50 is less than 25 µM. The molecule further registered an IC50 in assay [6] of less than 1 µM.

In assay [5], `Nc1ncc(-c2ccc3nc(NC(=O)CCCN4CCCCC4)cn3c2)cc1C(F)(F)F` displayed an EC50 of less than 10 µM. Moreover, in assay [6], the IC50 is less than 1 µM.

As for `CC(=O)Nc1cn2nc(-c3cnc(N)c(-c4ccn(C)n4)c3)ccc2n1`, the EC50 in assay [5] is less than 1 µM. This molecule had an IC50 in assay [6] of less than 1 µM.

`CC(=O)Nc1nc2ccc(-c3cnc(N)c(C(F)(F)F)c3)cn2c1-c1ccccc1` displayed an EC50 in assay [5] of less than 25 µM. Besides, in assay [6], the IC50 is less than 1 µM.

Consider `NC(=O)N1CCC[C@H]1C(=O)Nc1cn2cc(-c3cnc(N)c(C(F)(F)F)c3)ccc2n1`, for which the EC50 in assay [5] is less than 10 µM. In addition, the IC50 in assay [6] was less than 10 µM.

Turning to `Nc1ncc(-c2ccc3nc(NC(=O)CCCN4CCOCC4)cn3n2)cc1C(F)(F)F`, in assay [5], the EC50 is less than 1 µM. The molecule further gave an IC50 in assay [6] of less than 1 µM.

In assay [5], `NCC(=O)Nc1cn2cc(-c3cnc(N)c(C(F)(F)F)c3)ccc2n1` yielded an EC50 of less than 10 µM. In addition, in assay [6], the IC50 is less than 1 µM.

As for `CC(=O)Nc1cn2cc(-c3cnc(N)c(C=NNCC(F)(F)F)c3)ccc2n1`, in assay [5], the EC50 was less than 1 µM. Besides, the IC50 in assay [6] is less than 1 µM.

As to `CC(=O)Nc1nc2ccc(-c3cnc(N)c(CN(C)C)c3)cc2s1`, the EC50 in assay [5] is less than 10 µM. In addition, the IC50 in assay [6] is less than 1 µM.

Turning to `CON=Cc1cc(-c2ccc3nc(NC(C)=O)cn3c2)cnc1N`, in assay [5], the EC50 is less than 25 µM. Moreover, in assay [6], the IC50 was less than 1 µM.

`Nc1ncc(-c2ccc3nc(NC(=O)c4ccc(-n5ccnc5)cc4)cn3c2)cc1C(F)(F)F` yielded an EC50 in assay [5] of less than 10 µM. Moreover, in assay [6], the IC50 was less than 1 µM.

Consider `C[C@H](N)C(=O)Nc1cn2nc(-c3cnc(N)c(C(F)(F)F)c3)ccc2n1`, for which, in assay [5], the EC50 was less than 10 µM. This molecule showed an IC50 in assay [6] of less than 1 µM.
